This is an account of results in ChEMBL document CHEMBL1146293, “From dihydroxypyrimidine carboxylic acids to carboxamide HIV-1 integrase inhibitors: SAR around the amide moiety” (Bioorg Med Chem Lett, 2007).

Activity calls are given as the source filed them. The rule behind the calls is not given here.

One series is filed under the species Homo sapiens. The series is described as follows: Inhibitory activity against human DNA polymerase alpha.
Details: not given
As to `O=C(NCc1ccc(F)cc1)c1nc(-c2cccs2)nc(O)c1O`, the outcome was inactive.

The target of another series is Human immunodeficiency virus type 1 integrase (Human immunodeficiency virus 1, UniProt Q7ZJM1). The series can be described thus: Inhibition of HIV1 integrase strand transfer activity.
Sequence of Human immunodeficiency virus type 1 integrase (Q7ZJM1 whole entry): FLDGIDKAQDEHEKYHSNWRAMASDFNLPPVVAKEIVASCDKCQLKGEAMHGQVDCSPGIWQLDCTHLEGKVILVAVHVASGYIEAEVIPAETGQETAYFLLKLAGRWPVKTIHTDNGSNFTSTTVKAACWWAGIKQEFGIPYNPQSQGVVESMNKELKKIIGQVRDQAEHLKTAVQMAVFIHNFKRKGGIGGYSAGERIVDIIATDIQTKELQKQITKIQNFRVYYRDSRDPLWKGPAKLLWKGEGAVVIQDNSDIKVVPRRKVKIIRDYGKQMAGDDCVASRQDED
Details: not given
As for `O=C(NCc1ccc(Cl)cc1)c1nc(-c2cccs2)nc(O)c1O`, the IC50 (in general, the point on the concentration scale where inhibition reaches its midpoint) worked out at 20 nM. Same read-out and setting: to `O=C(NCc1cccc(-c2ccccc2)c1)c1nc(-c2cccs2)nc(O)c1O` belongs 50 nM; to `O=C(N[C@H]1CCc2ccccc21)c1nc(-c2cccs2)nc(O)c1O`, 20 nM. Turning to `COc1ccccc1CNC(=O)c1nc(-c2cccs2)nc(O)c1O`, the IC50 came out at 90 nM.

In turn, `O=C(NCCc1ccccc1)c1nc(-c2cccs2)nc(O)c1O` came in with an IC50 of 20 nM.

`Cc1cccc(CNC(=O)c2nc(-c3cccs3)nc(O)c2O)c1` registered an IC50 of 40 nM. Take `O=C(Nc1csc2ccccc12)c1nc(-c2cccs2)nc(O)c1O`: the IC50 turned out to be 50 nM. Turning to `O=C(Nc1ccccc1)c1nc(-c2cccs2)nc(O)c1O`, inhibition was half-maximal at 1000 nM (IC50).

Compound `Cc1ccc(CNC(=O)c2nc(-c3cccs3)nc(O)c2O)cc1` yielded an IC50 of 70 nM. The compound `O=C(Nc1cc2ccccc2s1)c1nc(-c2cccs2)nc(O)c1O` returned an IC50 of 10 nM. On the same count and under the same terms, to `O=C(NCc1cccc(F)c1)c1nc(-c2cccs2)nc(O)c1O` belongs 70 nM; to `O=C(N[C@@H]1CCc2ccccc21)c1nc(-c2cccs2)nc(O)c1O`, 610 nM. In turn, `COc1ccc(CNC(=O)c2nc(-c3cccs3)nc(O)c2O)cc1` returned an IC50 of 550 nM.

`O=C(NCc1c[nH]c2ccccc12)c1nc(-c2cccs2)nc(O)c1O` gave an IC50 of 20 nM.

For the compound `O=C(Nc1nccs1)c1nc(-c2cccs2)nc(O)c1O`, the IC50 amounted to 200 nM. In turn, `O=C(NCc1ccc(-c2ccccc2)cc1)c1nc(-c2cccs2)nc(O)c1O` had an IC50 of 50000 nM. This IC50 is about 250-fold higher than that of the compound before. With `C[C@H](NC(=O)c1nc(-c2cccs2)nc(O)c1O)c1ccc2ccccc2c1`, half-maximal inhibition (IC50) required 40 nM. This IC50 is about 1200-fold lower than that of the compound before.

Turning to `Cc1ccccc1CNC(=O)c1nc(-c2cccs2)nc(O)c1O`, the IC50 worked out at 110 nM. `O=C(NCc1ccccc1F)c1nc(-c2cccs2)nc(O)c1O` registered an IC50 of 160 nM. Take `O=C(Nc1cccs1)c1nc(-c2cccs2)nc(O)c1O`: the IC50 was found to be 100 nM. This IC50 is about 1.6-fold lower than that of the compound before. `O=C(NCc1ccccc1-c1ccccc1)c1nc(-c2cccs2)nc(O)c1O`: inhibition was half-maximal at 130 nM (IC50).

`COc1cccc(CNC(=O)c2nc(-c3cccs3)nc(O)c2O)c1`: the midpoint of inhibition, the IC50, lay at 50 nM. As for `O=C(NCc1ccncc1)c1nc(-c2cccs2)nc(O)c1O`, inhibition was half-maximal at 16600 nM (IC50).

On to `CN(C(=O)c1nc(-c2cccs2)nc(O)c1O)c1cccc2ccccc12`, for which the IC50 is 210 nM. On the same count and under the same terms, as for `O=C(NCC1CCCCC1)c1nc(-c2cccs2)nc(O)c1O`, the figure is 50000 nM; as for `C[C@@H](NC(=O)c1nc(-c2cccs2)nc(O)c1O)c1ccc2ccccc2c1`, 610 nM. In the case of `O=C(NCc1ccc(Cl)c(Cl)c1)c1nc(-c2cccs2)nc(O)c1O`, it took 10 nM to reach half-maximal inhibition (IC50). The same measure, in the same setting: to `O=C(Nc1cccc2ccccc12)c1nc(-c2cccs2)nc(O)c1O` belongs 30 nM; to `O=C(Nc1cncs1)c1nc(-c2cccs2)nc(O)c1O`, 2500 nM.

Tested on in a further series: not listed separately
The series is described as follows: Plasma clearance in rat. Format: ADME, organism-based.
Details: not given
`O=C(NCc1ccc(F)cc1)c1nc(-c2cccs2)nc(O)c1O`: the clearance (in general, the volume of plasma or blood freed of the substance per unit of time) is 11 mL/min/kg.

Another series relates to Human immunodeficiency virus. The series is described as follows: Inhibition of HIV reverse transcriptase.
Details: not given
For `O=C(NCc1ccc(F)cc1)c1nc(-c2cccs2)nc(O)c1O`, the outcome was inactive.

The species entered for a further series is Homo sapiens. The series is described as follows: Inhibitory activity against human DNA polymerase beta.
Details: not given
Turning to `O=C(NCc1ccc(F)cc1)c1nc(-c2cccs2)nc(O)c1O`, the outcome was inactive.

In a further series the test system is Hepacivirus hominis. The series is described as follows: Inhibition of HCV NS5b polymerase.
Details: not given
With `O=C(O)c1nc(-c2cccs2)nc(O)c1O`, the result was inactive.

Tested on in another series: not listed separately
The series is described as follows: Oral bioavailability in rat. Format: ADME, organism-based. Particulars: in vivo.
`O=C(NCc1ccc(F)cc1)c1nc(-c2cccs2)nc(O)c1O`: the bioavailability (as a rule, dose-corrected exposure relative to a reference, in per cent) came out at 39%.

The species entered for a further series is Homo sapiens. The series can be described thus: Inhibitory activity against human DNA polymerase gamma.
Details: not given
Take `O=C(NCc1ccc(F)cc1)c1nc(-c2cccs2)nc(O)c1O`: the result was inactive.
